Target: T1, soluble guanylate cyclase (sGC) (Rattus norvegicus, UniProt P20595)
T1 construct: made in house; host or cells: baculovirus/Sf9 insect cells
T1 sequence (P20595 1-619): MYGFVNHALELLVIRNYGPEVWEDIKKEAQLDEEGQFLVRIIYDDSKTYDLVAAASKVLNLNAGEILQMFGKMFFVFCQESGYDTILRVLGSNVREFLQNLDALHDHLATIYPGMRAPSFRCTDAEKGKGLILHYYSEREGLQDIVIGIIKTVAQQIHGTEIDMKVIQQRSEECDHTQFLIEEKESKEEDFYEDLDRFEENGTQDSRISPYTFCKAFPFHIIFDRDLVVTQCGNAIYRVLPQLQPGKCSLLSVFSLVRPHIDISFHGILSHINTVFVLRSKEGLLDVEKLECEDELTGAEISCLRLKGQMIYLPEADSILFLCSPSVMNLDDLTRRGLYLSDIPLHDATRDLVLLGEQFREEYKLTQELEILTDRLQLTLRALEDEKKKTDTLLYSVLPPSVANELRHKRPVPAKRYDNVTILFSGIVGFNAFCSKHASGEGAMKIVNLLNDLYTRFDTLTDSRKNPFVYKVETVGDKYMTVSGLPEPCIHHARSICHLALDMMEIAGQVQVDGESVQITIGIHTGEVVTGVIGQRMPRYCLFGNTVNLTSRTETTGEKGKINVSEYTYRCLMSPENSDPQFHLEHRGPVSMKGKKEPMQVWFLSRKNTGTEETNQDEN
T1 sequence (P19686 1-690 partner): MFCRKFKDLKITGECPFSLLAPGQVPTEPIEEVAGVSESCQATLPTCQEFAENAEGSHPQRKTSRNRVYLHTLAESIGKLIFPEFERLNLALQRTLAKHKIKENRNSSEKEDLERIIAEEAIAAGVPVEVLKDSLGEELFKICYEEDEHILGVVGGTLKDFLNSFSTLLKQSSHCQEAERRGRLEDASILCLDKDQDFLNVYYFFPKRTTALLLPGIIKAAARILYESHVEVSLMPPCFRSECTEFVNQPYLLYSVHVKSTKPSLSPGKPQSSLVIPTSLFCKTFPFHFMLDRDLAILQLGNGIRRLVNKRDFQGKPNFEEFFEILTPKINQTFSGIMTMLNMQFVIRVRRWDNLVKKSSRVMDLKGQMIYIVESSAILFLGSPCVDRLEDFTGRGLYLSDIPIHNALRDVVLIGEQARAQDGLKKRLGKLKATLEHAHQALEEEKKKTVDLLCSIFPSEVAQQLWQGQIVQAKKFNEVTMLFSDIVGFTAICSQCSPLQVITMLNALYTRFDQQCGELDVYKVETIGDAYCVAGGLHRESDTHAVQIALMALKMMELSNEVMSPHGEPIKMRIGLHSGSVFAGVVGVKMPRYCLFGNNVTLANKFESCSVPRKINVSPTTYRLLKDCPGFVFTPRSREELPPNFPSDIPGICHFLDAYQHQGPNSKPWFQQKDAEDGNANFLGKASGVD
Experiment: Activating action at the sGC enzyme in vitro (PPi detection, luciferase)
Type: biochemical
Outline: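 Rat sGC (0–10 nM) preincubated 10 min at room temperature with compound in TEA buffer, pH 7.5; reaction started with GTP (1.25 mM solution). PPi formed read continuously by luciferase luminescence; stimulation expressed relative to unstimulated enzyme. Heme-free enzyme tested after 30 min with 25 μM ODQ.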

- MEC (minimum effective concentration), activating action at the sGC enzyme: 20 nM
- EC50 (read-out: EC50 (concentration at 50% of maximum efficacy), activating action at the sGC enzyme): 381 nM
SMILES: O=C(O)CCc1cccc(NC(=O)C(c2ccc(CN3N=C(c4ccccc4)OCC3=O)cc2)C2CCCC2)c1 (single isomer, unassigned) [Example 103, 3-{3-[(Cyclopentyl{4-[(5-oxo-2-phenyl-5,6-dihydro-4H-1,3,4-oxadiazin-4-yl)methyl]phenyl}acetyl)amino]phenyl}propanoic acid]
